For this data set, the system named is patients with certain neurological and mental disorders. Briefly: Therapeutic effects of psilocybin in selected patients (patient experiences). The data set is classed as in vivo, human. Particulars: identified group of selected patients after intaking the psilocybin products. An excerpt: In one aspect, psilocybin is effective in treating and reducing ADHD, anxiety, ADD and the symptoms of Tourette Syndrome. […] Some patients suffered significant side effects when taking prescription drugs for the respective indications.

In the case of `CN(C)CCc1c[nH]c2cccc(OP(=O)(O)O)c12` [Psilocybin, psilocybin], the side effects entry is “minimal side effects”.
